Results taken from patent US9278962B2 (Cytokinetics, Inc., priority 2011, dated 2016).

Tested on: rabbit skeletal myofibrils (approximately 90% fast fibers)
Experiment: Activation of fast skeletal myofibrils (PUMA coupled-enzyme ATPase assay, AC1.4)
Assay type: biochemical
Conditions: concentration at which the compound increased enzymatic activity by 40%, calcium at pCa25
Protocol: Rabbit skeletal myofibrils were prepared based upon the method of Herrmann et al. (Biochem. 32(28):7255-7263(1993). Myofibrils were prepared from rabbit psoas muscle purchased from Pel-Freez Biologicals (Arkansas) within 2 days of ordering, stored on ice. Minced muscle was homogenized in 10 volumes of ice-cold “standard” buffer (50 mM Tris, pH 7.4, 0.1 M potassium acetate, 5 mM KCl, 2 mM DTT, 0.2 mM PMSF, 10 μM leupeptin, 5 μM pepstatin, and 0.5 mM sodium azide) containing 5 mM EDTA and 0.5% Triton X-100 using an Omni-Macro homogenizer. Myofibrils were recovered by low speed centrifugation (3000 rpm for 10 minutes) and washed 2 times in the Triton X-100 containing buffer to ensure removal of cellular membrane. Following the Triton washes, myofibrils were washed 3 times in “standard” buffer containing 2 mM magnesium acetate. A final wash in assay buffer (12 mM PIPES, pH 6.8, 60 mM KCl, 1 mM DTT) was performed and brought to 10% sucrose for flash freezing in liquid nitrogen and storage at −80° C.
Fast fiber activators were identified by measuring the enzymatic activity of muscle myofibril preparations using the proprietary PUMA™ (see, e.g., U.S. Pat. Nos. 6,410,254, 6,743,599, 7,202,051, and 7,378,254) assay system. Myofibril preparations consisted of rabbit skeletal muscle (approximately 90% fast fibers) that had been mechanically homogenized and washed with a detergent (triton X-100) to remove cellular membranes. This preparation retained all of the sarcomeric components in a native conformation and the enzymatic activity was still regulated by calcium. Compounds were tested using a myofibril suspension and a level of calcium sufficient to increase enzymatic activity of the myofibrils to 25% of their maximal rate (termed pCa25). Enzymatic activity was tracked via a pyruvate kinase and lactate dehydrogenase-coupled enzyme system. This assay regenerates myosin-produced ADP into ATP by oxidizing NADH, producing an absorbance change at 340 nm. The buffering system was 12 mM Pipes, 2 mM MgCl2, 1 mM DTT at pH 6.8 (PM12 buffer).
Using procedures similar to those described herein, utilizing reagents and intermediates commercially available (e.g., Sigma-Aldrich) or readily synthesized by one of skill in the art, the compounds in Table 2, Table 3, Table 4 and Table 5 were synthesized, characterized and tested. AC1.4 values were determined according to the procedure described in Example 6, and the reported median AC1.4 values are as follows: A=<1 uM; B=1-10 uM; C=10-20 uM; D=>20 uM.

| Mean AC1.4 (Table 2) | further results | SMILES |
| --- | --- | --- |
| – | Mean AC1.4 (Table 4): C (C=10-20 uM) | N#Cc1ccc2nc(NCC3(c4ccccn4)CCC3)sc2c1 [2-((1-(pyridin-2-yl)cyclobutyl)methylamino)benzo[d] thiazole-6-carbonitrile] |
| A (A=<1 uM) | – | CC(C)(CNc1nc(-c2ccc3[nH]nc(N)c3c2)ns1)c1ccc(F)cc1 [[3-(3-amino(1H-indazol-5-yl))(1,2,4-thiadiazol-5-yl)][2-(4-fluorophenyl)-2-methylpropyl]amine] |
| C (C=10-20 uM) | – | NC(=O)c1cccc(-c2nsc(NCCc3ccccc3)n2)c1 [3-{5-[(2-phenylethyl)amino]-1,2,4-thiadiazol-3-yl}benzamide] |
| A (A=<1 uM) | – | C[C@H](CNc1nc(-c2cccc(C(N)=O)c2)ns1)c1ccc(F)cc1 [3-(5-{[(2S)-2-(4-fluorophenyl)propyl]amino}-1,2,4-thiadiazol-3-yl)benzamide] |
| D (D=>20 uM) | – | COc1cccc(Cc2nsc(NCCc3cc(F)cc(F)c3)n2)c1 [[2-(3,5-difluorophenyl)ethyl]{3-[(3-methoxyphenyl)methyl](1,2,4-thiadiazol-5-yl)}amine] |
| – | Mean AC1.4 (Table 3): A (A=<1 uM) | Fc1cccnc1[C@]1(CNc2nnc(-c3cc(Br)ccc3Cl)s2)C[C@H](F)C1 [5-(5-bromo-2-chlorophenyl)-N-(((cis)-3-fluoro-1-(3-fluoropyridin-2-yl)cyclobutyl)methyl)-1,3,4-thiadiazol-2-amine] |
| – | Mean AC1.4 (Table 3): A (A=<1 uM) | Fc1ccccc1-c1nnc(NC[C@]2(c3ncccc3F)C[C@H](F)C2)s1 [N-((3-fluoro-1-(3-fluoropyridin-2-yl)cyclobutyl)methyl)-5-(2-fluorophenyl)-1,3,4-thiadiazol-2-amine] |
| A (A=<1 uM) | – | COc1cccc(Cc2nsc(NCC(C)c3ccc(Cl)cc3)n2)c1 (stereo not drawn) [[2-(4-chlorophenyl)propyl]{3-[(3-methoxyphenyl)methyl](1,2,4-thiadiazol-5-yl)}amine] |
| – | Mean AC1.4 (Table 3): B (B=1-10 uM) | Cc1ccccc1-c1nnc(NCC2(c3ncccc3F)CCC2)s1 [N-((1-(3-fluoropyridin-2-yl)cyclobutyl)methyl)-5-o-tolyl-1,3,4-thiadiazol-2-amine] |
| D (D=>20 uM) | – | COc1cccc(Cc2nsc(NCCc3nc(C)cs3)n2)c1 [{3-[(3-methoxyphenyl)methyl](1,2,4-thiadiazol-5-yl)}[2-(4-methyl(1,3-thiazol-2-yl))ethyl]amine] |
| B (B=1-10 uM) | – | NC(=O)c1cccc(-c2nsc(NCCc3ccc(F)cc3)n2)c1 [3-(5-{[2-(4-fluorophenyl)ethyl]amino}-1,2,4-thiadiazol-3-yl)benzamide] |
| – | Mean AC1.4 (Table 5): D (D=>20 uM) | N#Cc1ccc(F)c(-c2nnc(NC3(c4ncccc4F)CCC3)[nH]2)c1 [4-fluoro-3-(5-(1-(3-fluoropyridin-2-yl)cyclobutylamino)-4H-1,2,4-triazol-3-yl)benzonitrile] |
| – | Mean AC1.4 (Table 4): B (B=1-10 uM) | CNC(=O)c1ccc2nc(NCC(C)(C)c3ccc(F)cc3)sc2c1 [2-(2-(4-fluorophenyl)-2-methylpropylamino)-N-methylbenzo[d]thiazole-6-carboxamide] |
| D (D=>20 uM) | – | NC(=O)c1cccc(-c2nsc(NCCCc3ccccc3)n2)c1 [3-{5-[(3-phenylpropyl)amino]-1,2,4-thiadiazol-3-yl}benzamide] |
| – | Mean AC1.4 (Table 4): A (A=<1 uM) | CC(C)(CNc1nc2c(Cl)cc(C(N)=O)cc2s1)c1ccc(F)cc1 [4-chloro-2-(2-(4-fluorophenyl)-2-methylpropylamino)benzo[d] thiazole-6-carboxamide] |
| B (B=1-10 uM) | – | COC(=O)NCCCc1nsc(NCC(C)(C)c2ccc(F)cc2)n1 [N-[3-(5-{[2-(4-fluorophenyl)-2-methylpropyl]amino}(1,2,4-thiadiazol-3-yl))propyl]methoxycarboxamide] |
| – | Mean AC1.4 (Table 4): B (B=1-10 uM) | CC(C)(CNc1nc2cc(Cl)ccc2s1)c1ccc(F)cc1 [5-chloro-N-(2-(4-fluorophenyl)-2-methylpropyl)benzo[d]thiazol-2-amine] |
| C (C=10-20 uM) | – | COc1cccc(Cc2nsc(NCCc3ccc(Cl)cc3Cl)n2)c1 [[2-(2,4-dichlorophenyl)ethyl]{3-[(3-methoxyphenyl)methyl](1,2,4-thiadiazol-5-yl)}amine] |

| Mean AC1.4 (Table 2) | further results | SMILES |
| --- | --- | --- |
| B (B=1-10 uM) | – | C=Cc1nsc(NCC(C)(C)c2ccc(F)cc2)n1 [[2-(4-fluorophenyl)-2-methylpropyl](3-vinyl(1,2,4-thiadiazol-5-yl))amine] |
| C (C=10-20 uM) | – | CC(C)(CNc1nc(CCC(=O)N2CCCC2)ns1)c1ccc(F)cc1 [3-(5-{[2-(4-fluorophenyl)-2-methylpropyl]amino}(1,2,4-thiadiazol-3-yl))-1-pyrrolidinylpropan-1-one] |
| D (D=>20 uM) | – | CC(C)(CNc1nc(N2CCOCC2)ns1)c1ccc(F)cc1 [[2-(4-fluorophenyl)-2-methylpropyl](3-morpholin-4-yl(1,2,4-thiadiazol-5-yl))amine] |
| – | Mean AC1.4 (Table 4): B (B=1-10 uM) | CC(C)(CNc1nc2ccccc2s1)c1ccc(F)cc1 [N-(2-(4-fluorophenyl)-2-methylpropyl)benzo[d]thiazol-2-amine] |
| C (C=10-20 uM) | – | CC(C)(CNc1nc(CCN2CC[C@H](O)C2)ns1)c1ccc(F)cc1 [(3S)-1-[2-(5-{[2-(4-fluorophenyl)-2-methylpropyl]amino}(1,2,4-thiadiazol-3-yl))ethyl]pyrrolidin-3-ol] |
| D (D=>20 uM) | – | Cc1ccc(Cc2nsc(NCCc3ccccc3Cl)n2)cc1 [[2-(2-chlorophenyl)ethyl]{3-[(4-methylphenyl)methyl](1,2,4-thiadiazol-5-yl)}amine] |
| B (B=1-10 uM) | – | CCc1nsc(NCC(C)(C)c2ccc(F)cc2)n1 [(3-ethyl(1,2,4-thiadiazol-5-yl))[2-(4-fluorophenyl)-2-methylpropyl]amine] |
| – | Mean AC1.4 (Table 3): B (B=1-10 uM) | Cc1ccc(-c2nnc(NCC3(c4ncccc4F)CCC3)s2)cc1 [N-((1-(3-fluoropyridin-2-yl)cyclobutyl)methyl)-5-p-tolyl-1,3,4-thiadiazol-2-amine] |
| C (C=10-20 uM) | – | CC(Nc1nc(-c2cccc(C(N)=O)c2)ns1)C(=O)c1ccc(F)cc1 (stereo not drawn) [3-(5-{[2-(4-fluorophenyl)-1-methyl-2-oxoethyl]amino}-1,2,4-thiadiazol-3-yl)benzamide] |
| – | Mean AC1.4 (Table 4): B (B=1-10 uM) | Clc1ccc2nc(NCC3(c4ccccn4)CCC3)sc2c1 [6-chloro-N-((1-(pyridin-2-yl)cyclobutyl)methyl)benzo[d] thiazol-2-amine] |
| – | Mean AC1.4 (Table 5): D (D=>20 uM) | CC(C)(Nc1nnc(-c2cc(C#N)ccc2F)o1)c1ccc(F)cc1 [4-fluoro-3-(5-(2-(4-fluorophenyl)propan-2-ylamino)-1,3,4-oxadiazol-2-yl)benzonitrile] |
| – | Mean AC1.4 (Table 3): A (A=<1 uM) | CC(C)(CNc1nnc(-c2cc(Br)ccc2F)s1)c1ncccc1F [5-(5-bromo-2-fluorophenyl)-N-(2-(3-fluoropyridin-2-yl)-2-methylpropyl)-1,3,4-thiadiazol-2-amine] |
| D (D=>20 uM) | – | N#Cc1cccc(-c2nsc(NCCc3ccc(F)cc3)n2)c1 [3-(5-{[2-(4-fluorophenyl)ethyl]amino}-1,2,4-thiadiazol-3-yl)benzenecarbonitrile] |
| – | Mean AC1.4 (Table 5): D (D=>20 uM) | Fc1cccnc1C1(CNc2nnc(-c3ccccc3)o2)CCC1 [N-((1-(3-fluoropyridin-2-yl)cyclobutyl)methyl)-5-phenyl-1,3,4-oxadiazol-2-amine] |
| B (B=1-10 uM) | – | CC(C)(CNc1nc(-c2ccc(O)nc2)ns1)c1ccc(F)cc1 [5-(5-{[2-(4-fluorophenyl)-2-methylpropyl]amino}-1,2,4-thiadiazol-3-yl)pyridin-2-ol] |
| D (D=>20 uM) | – | COc1ccc(CCNc2nc(Cc3cccc(OC)c3)ns2)cc1 [[2-(4-methoxyphenyl)ethyl]{3-[(3-methoxyphenyl)methyl](1,2,4-thiadiazol-5-yl)}amine] |
| – | Mean AC1.4 (Table 4): B (B=1-10 uM) | COc1cccc(C2(CNc3nc4ccc(C#N)cc4s3)CCC2)n1 [2-((1-(6-methoxypyridin-2-yl)cyclobutyl)methylamino)benzo[d] thiazole-6-carbonitrile] |
| B (B=1-10 uM) | – | COc1cccc(Cc2nsc(NCCc3ccc(Cl)c(Cl)c3)n2)c1 [[2-(3,4-dichlorophenyl)ethyl]{3-[(3-methoxyphenyl)methyl](1,2,4-thiadiazol-5-yl)}amine] |
